Assay results published in article PMC12339982 (Nature Communications, 2025).

Assays:
[1] = molecular target: T1, human wild type TauT (TauT^WT) (Homo sapiens, UniProt P31641); assay: [3H]taurine uptake inhibition assay in HEK293T cells overexpressing TauT^WT; assay type: cell-based; settings: for inhibition of the uptake activity of TauT: result in words
T1 sequence (P31641 1-620): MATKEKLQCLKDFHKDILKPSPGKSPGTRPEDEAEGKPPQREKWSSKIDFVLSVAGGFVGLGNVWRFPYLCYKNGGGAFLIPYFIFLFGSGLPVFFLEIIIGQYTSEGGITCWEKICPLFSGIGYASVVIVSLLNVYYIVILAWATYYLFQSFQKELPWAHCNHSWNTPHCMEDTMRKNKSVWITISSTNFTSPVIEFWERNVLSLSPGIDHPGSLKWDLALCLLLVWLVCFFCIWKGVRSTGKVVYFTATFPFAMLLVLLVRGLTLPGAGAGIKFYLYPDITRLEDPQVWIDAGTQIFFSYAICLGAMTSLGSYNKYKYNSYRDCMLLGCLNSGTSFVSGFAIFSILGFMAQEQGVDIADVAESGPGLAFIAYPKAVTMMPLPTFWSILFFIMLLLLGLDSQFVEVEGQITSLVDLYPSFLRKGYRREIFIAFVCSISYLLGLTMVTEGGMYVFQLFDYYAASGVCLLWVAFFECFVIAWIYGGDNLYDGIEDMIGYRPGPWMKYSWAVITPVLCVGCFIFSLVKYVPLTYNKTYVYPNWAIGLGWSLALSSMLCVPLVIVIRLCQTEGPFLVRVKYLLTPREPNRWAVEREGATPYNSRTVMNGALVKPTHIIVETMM

hGAT1 = settings: previous studies; cited from earlier work

Structure (SMILES) | inhibition of the uptake activity of TauT [1] | IC50 [1] [µM] | IC50 for hGAT1 compared with hTauT (hGAT1)
O=C(O)Cc1c[nH]cn1 [I4AA, imidazole-4-acetic acid] | concentration-dependently inhibited |  | 
NCCCS(=O)(=O)O [Htau, homotaurine] | concentration-dependently inhibited | 770 ± 160 | 
O=C(O)C1CCCNC1 (stereo not shown) [nipecotic acid] | concentration-dependently inhibited |  | lower IC50 value for hGAT1 than for hTauT
O=S(=O)(O)C1CCNCC1 [P4S, piperidine-4-sulfonic acid] | concentration-dependently inhibited |  | 
NCCCCC(=O)O [5AVA, 5-aminovaleric acid] | concentration-dependently inhibited |  | 
